Measurements published in patent US10336984B2, “Method of molecular stress control” (CPSI Holdings LLC, priority 2010, dated 2019).
Entries after “also recorded” stand apart in the source; their conditions may differ. Where two headings read alike, the source gives them in different places.

Key:
[1] = tested on: human corneal endothelial cells (HCECs); experiment: Viability of HCECs after hypothermic storage (alamarBlue); assay type: cell-based; conditions: for survival difference between ViaSpan with and without tunicamycin: 3 days at 4° C.; for viability at 10 µM / viability at 25 µM: Homo sapiens, HCEC; for viability at 10 µM: 10 μM salubrinal
Experimental: (§1) Thermal Stress Regime: Cells were seeded into 96-well tissue culture plates (13,000 cells per well) and cultured for 24 hours into a monolayer. Culture media was decanted from experimental plates and replaced with 100 μl/well of the pre-cooled (4° C.) solution (complete growth media, HBSS with calcium and magnesium, ViaSpan, or OptiSol). Cultures were maintained at 4° C. for 18 hours to 9 days. Following cold storage, the media were decanted, replaced with 100 μl/well of room temperature (˜25° C.) complete culture media and then placed into standard culture conditions (37° C., 5% CO2) for recovery and assessment.
(§2) Cell Viability Assay: To assess cell viability the metabolic activity assay, alamarBlue™ (Invitrogen) was utilized. Cell culture medium was decanted from the 96-well plates and 100 μl/well of the working alamarBlue™ solution (1:20 dilution in HBSS) was applied. Samples were then incubated for 60 minutes (±1 min) at 37° C. in the dark. The fluorescence levels were analyzed using a Tecan SPECTRAFluorPlus plate reader (TECAN, Austria GmbH). Relative fluorescence units were converted to a percentage compared to normothermic controls set at 100%. Readings were taken immediately following removal from hypothermic storage as well as 24 and 48 hours of recovery.
Chemical Additions: Modulation of the UPR was accomplished through the use of salubrinal (UPR-specific inhibitor), tunicamycin (UPR-specific inducer), resveratrol, AKT, Vitamin D3, caspase and MPTP inhibitors, among others. For instance, salubrinal (EMD Chemicals Inc., Gibbstown, N.J.) was added to media at working concentrations of 10 and 25 μM immediately before utilization. Tunicamycin (EMD Chemicals Inc.) was added to ViaSpan at a working concentration of 2 ug/mL immediately prior to use. All chemicals were diluted in water, ethanol, or DMSO prior to utilization and DMSO controls were conducted to ensure no effect of the dilution vehicle.

[2] = tested on: human lung fibroblasts (IMR-90); experiment: Cold exposure of human lung fibroblasts (IMR-90); assay type: cell-based
Experimental: Preliminary studies into Unfolded Protein Response (UPR) pathways in cell death associated with cell stress has provided promising results. The UPR activator, tunicamycin, was applied in a thermal stress regime. In FIG. 5, human lung fibroblasts (IMR-90) were exposed to the cold (4° C.) in cell culture media, Viaspan (with and without tunicamycin), or ViaSpan with DMSO (carrier solution for tunicamycin). The DMSO control acts as a chemical chaperone. It was hypothesized that the addition of tunicamycin would result in an increased level of cell death following thermal stress.
With this discovery, additional studies were conducted under a more stressful thermal regime designed to completely destroy all cells. […] In subsequent studies, tunicamycin was added subsequent to (rather than during) the cold stress period and compared to samples without addition. (See FIG. 5).
FIG. 5 also depicts the viability of human lung fibroblasts (IMR-90) following two days of cold exposure with the addition of resveratrol (FR234). […] Yet, when tunicamycin is added during the recovery phase, this agent has the predicted lethal effect as described in the UPR literature.

[3] = tested on: RM-9 prostate cancer cells; experiment: Survival of RM-9 prostate cancer cells under cryotreatment (freezing) stress; assay type: cell-based, mouse; conditions: high doses
Excerpt: Experiments have been completed and have expanded the scope of study to (1) include natural agents as part of the formulation and (2) target various stress pathways that may be activated in cells when they are bioprocessed. A variety of agents were used in addition to resveratrol. Of these, Vitamin D3 (i.e. calcitriol) at high doses protects the cells. […] Here, the stress regime included cryotreatment (freezing).

human hepatoma (C3A) = assay type: cell-based
Excerpt: Samples were processed utilizing industry standard media (Roswell Park Memorial Institute, RPMI, media), cryo-protective agents and techniques. Cell survival response curves were plotted against varying concentrations of DMSO. Samples were frozen, thawed, cultured to allow for recovery, and then frozen again. This process was repeated 4 times (e.g. Freeze #1, Freeze #2, Freeze #3, Freeze #4) over experimental periods of several weeks (FIG. 8).
As the intent of cell-guard is to reduce the negative effects of stress response of cells during normothermic culture processing, a series of studies using the freeze stress model were conducted examining the potential of stress response modulation during recovery culture. The studies examined the effect of modulating the apoptotic cell death mechanism, caspase cascade, as well as mitochondrial oxidative stress pathways. While numerous studies have looked at caspase and free radical formation inhibition during stresses including freezing, no studies have been reported looking to the effect of post-processing manipulation.
As such, in FIG. 9, C3A samples were frozen using industry standard protocols in culture media+0%, 2%, 5%, and 10% DMSO. […]

rat primary hepatocytes = experiment: Hypothermic stress of rat primary hepatocytes with supplements; assay type: cell-based
Experimental: as §1, §2
In FIG. 19, the C3A cells were then substituted with rat primary hepatocytes. […]

[4] = tested on: primary human hepatocytes; experiment: Hypothermic stress of primary human hepatocytes with supplements; assay type: cell-based; conditions: hypothermic exposure at 4° C.
Experimental: as §1, §2
As such, in FIG. 20, primary human hepatocytes were then subjected to the same hypothermic stress paradigm. […]

[5] = tested on: C3A, human liver cancer cells; experiment: Hypoxic normothermic stress of C3A cells with supplements; assay type: cell-based; conditions: normothermic hypoxic stress regime
Experimental: (§3) As an example, hepatocytes and C3A cells were placed under hypoxic conditions […] (normothermic incubation) in various commercial media with and without salubrinal or resveratrol. As with the cold thermal stress model, through the application of the current invention, preferential selection of either cell population was possible. The table in FIG. 10 summarizes the representative response of the various liver cells when placed into the two stress model conditions of thermal and hypoxic stress.
(§4) Stress Regime 2—Hypoxia: Cells were held at 37° C. in an incubator with reduced levels of O2 for a 24 hour period. Two hypoxia models were utilized including increased CO2 levels providing for an 80% air: 20% CO2 ratio (versus standard 95% air: 5% CO2) as well as limited gas exchange using isolated environmental chambers. This procedure is designed to model various intervals of suboptimal culture conditions associated with cell processing and utilization.

human hepatocytes = experiment: Hypoxic normothermic stress of hepatocytes with supplements; assay type: cell-based
Experimental: as §3, §4

[6] = tested on: human hepatoma C3A cell lines; experiment: C3A cells three days under optimal culture conditions with FR-234 (alamarBlue); assay type: cell-based; conditions: highest dose, 100 μg/mL; three days at 37° C., 5% CO2
Experimental: FIG. 7 assesses the effect of the stress modulator, resveratrol (FR-234), exposure for three days under optimal culture conditions in human hepatoma C3A cell lines. In this graph, C3A cells were stored for three days under optimal culture conditions (37° C., 5% CO2) with a range of FR-234 doses. Cells were removed from storage after three days. Storage solutions were replaced with fresh culture media and viability was assessed at 1, 2, and 3 days post-storage using the metabolic activity indicator, alamarBlue.

[7] = tested on: human corneal endothelial cells (HCECs); experiment: Cell death populations in HCECs after cold storage (flow cytometry, fluorescence microscopy); assay type: cell-based
Experimental: Fluorescence Microscopy: Samples in 96-well plates were assessed for the presence of live, necrotic or apoptotic cells through triple labeling using Hoechst [81 μM], propidium iodide [9 μM], and Y oPro-1 [0.8 μM] (Molecular Probes, Eugene, Oreg.), respectively. Probes were added to samples and incubated in the dark for 20 minutes prior to imaging. To assess membrane integrity a dual label of calcein-AM [4 μM] and propidium iodide [9 μM] was utilized. Dual label probes were added to the samples and incubated for 30 minutes in the dark. All fluorescence images of labeled cells were obtained at 1, 4, 8 and 24 hours post-storage using a Zeiss Axiovert 200 fluorescent microscope with the AxioVision 4 software (Zeiss, Germany).
Flow Cytometric Analysis: Counts of the unlabeled (live), necrotic (PI [1.5 μM]) and apoptotic (YOPRO-1 [0.1 μM]) labeled cells were obtained using microfluidic flow cytometry (Millipore). Probes were added to each sample and incubated in the dark for 20 minutes prior to cell collection. Counts of cells with polarized and depolarized mitochondria (JC-1 [7.7 μM]) were also obtained via microfluidic flow cytometry. Samples were labeled, collected and analyzed at 1, 4, 8 and 24 hours post-storage. Analysis was performed using the CytoSoft 5.2 software for the Guava PCA-96 system.
Following the observation of differences in viability through the targeted modulation of the UPR, we next analyzed what effect this targeted approach has on the level and timing of cell death following hypothermic storage. HCECs were held at 4° C. for 24 hours in various solutions (CGM, HBSS, ViaSpan and OptiSol) with and without the addition of 25 μM salubrinal and assessed via microfluidic flow cytometry and fluorescence microscopy. Analysis of the apoptotic and necrotic populations was conducted to examine the effect UPR inhibition (25 μM salubrinal) had on cell death populations post-storage.

tunicamycin
cell survival immediately post-storage ([1]; 3 days at 4° C. in ViaSpan, tunicamycin 2 ug/mL, 0 hours recovery): ~60% | survival difference between ViaSpan with and without tunicamycin ([1]; 24 hours of recovery): 29.0% | survival difference between ViaSpan with and without tunicamycin ([1]; 48 hours post-storage): 53.9% | HCEC survival during the recovery period ([1]; tunicamycin added during cold exposure): significant decrease in HCEC survival | cell survival ([2]; post stress addition of tunicamycin (recovery phase)): reduction in cell survival | thermal tolerance ([2]; tunicamycin in Viaspan during cold (4° C.) exposure): increase in thermal tolerance | effect of tunicamycin post-cold on samples exposed to resveratrol ([2]; two days of cold exposure): negating the positive effects of resveratrol

C=C1/C(=C\C=C2/CCC[C@]3(C)[C@@H]([C@H](C)CCCC(C)(C)O)CC[C@@H]23)C[C@@H](O)C[C@@H]1O [Vitamin D3, calcitriol]
protection of cells under stress regime [3]: protects cells

CC(=O)N[C@@H](CS)C(=O)O [NAC, N-Acetyl-Cysteine]
effect on cell division in extended post-stress culture (human hepatoma (C3A)): no downstream negative effect on cell division | overall increase in sample recovery (human hepatoma (C3A); 10% DMSO condition, supplement for first 24 hours post-processing): ~20%

Oc1ccc(C=Cc2cc(O)cc(O)c2)cc1 [resveratrol]
protection of rat primary hepatocytes from hypothermic stress (rat primary hepatocytes): very effectively protected | protection of human hepatocytes from cold stress / cell viability [4]: able to completely protect; also recorded: extended | cell viability of C3A cells [5]: extended the cell viability for C3A cells | cell viability of hepatocytes (human hepatocytes; normothermic hypoxic stress regime): not for hepatocytes | effect of resveratrol on viability ([2]; two days of cold exposure): positive effects | effect on sample viability [6]: profound negative effect on sample viability

O=C(/C=C/c1ccccc1)NC(NC(=S)Nc1cccc2cccnc12)C(Cl)(Cl)Cl (centres unmarked) [salubrinal]
viability over the 48 hour recovery period ([1]; 24 hours at 4° C. in CGM, 25 μM salubrinal): retained | effect of salubrinal addition on viability ([1]; 24 hours at 4° C. in HBSS and ViaSpan): no differences | effect of salubrinal supplementation on viability ([1]; 48 hour storage in ViaSpan): no effect | viability ([1]; 48 hour storage in ViaSpan with salubrinal supplementation): 76.7% | viability following 2 days of cold storage ([1]; CGM and OptiSol, all samples with and without salubrinal): complete loss in viability | HCEC tolerance to stress ([1]; FIG. 11, 18 hours of hypothermic storage): improves human corneal endothelial cell (HCEC) tolerance to stress | increase in cell survival ([1]; HCEC samples experiencing profound cold-induced failure): 2 fold | viability at 10 µM ([1]; 48 h, 2 days at 4° C. in HBSS, read-out: overall viability): 26.9% | viability at 25 µM ([1]; 48 h, 2 days at 4° C. in HBSS, 25 μM salubrinal, read-out: overall viability): 37.8% | viability at 10 µM ([1]; 24 hours at 4° C. in CGM, read-out: post-storage viability): 23.1% | viability at 25 µM ([1]; 24 hours at 4° C. in CGM, 25 μM salubrinal, read-out: post-storage viability): 28% | viability at 10 µM ([1]; 24 hours at 4° C. in OptiSol, read-out: post storage viability): 52.3% | viability at 25 µM ([1]; 24 hours at 4° C. in OptiSol, 25 μM salubrinal, read-out: post storage viability): 53.9% | protection of rat primary hepatocytes from hypothermic stress (rat primary hepatocytes; hypothermic exposure at 4° C.): failed to protect | cell viability of hepatocytes (human hepatocytes): extended the cell viability of hepatocytes | total cell retention during hypothermic exposure ([7]; 25 μM salubrinal, 24 hours at 4° C.): increased retention of total cells | levels of apoptosis, inhibited vs uninhibited ([7]; 25 μM salubrinal, 24 hours at 4° C., each time point): elevated | necrotic populations, UPR inhibited vs uninhibited ([7]; 25 μM salubrinal, 24 hours at 4° C., normalized to normothermic control): similar | membrane integrity and cellular attachment during recovery ([7]; CGM storage 24 hours, calcein-AM and propidium iodide): marked increase
